Experimental data as given in PubChem BioAssay (NCI).
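The compound was tested at five concentrations on cells cultured in 96-well plates, with a 48-hour exposure period. At the GI50, growth is halved. Definition used: TGI = concentration required for complete inhibition of growth.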

Columns and labels:
Assay in all cases: growth of human tumour cells (NCI), 48 h
HCT-116 colon = tested on: HCT-116 colon
T-47D breast = tested on: T-47D breast
COLO 205 colon = tested on: COLO 205 colon
SF-295 CNS = tested on: SF-295 CNS
SK-MEL-5 melanoma = tested on: SK-MEL-5 melanoma
EKVX NSCLC = tested on: EKVX NSCLC
HT29 colon = tested on: HT29 colon
HS 578T breast = tested on: HS 578T breast
MCF7 breast = tested on: MCF7 breast
U251 CNS = tested on: U251 CNS
HOP-92 NSCLC = tested on: HOP-92 NSCLC
SK-MEL-28 melanoma = tested on: SK-MEL-28 melanoma
HCC-2998 colon = tested on: HCC-2998 colon
IGROV1 ovarian = tested on: IGROV1 ovarian
NCI-H522 lung = tested on: NCI-H522 lung
TK-10 renal = tested on: TK-10 renal
SK-MEL-2 melanoma = tested on: SK-MEL-2 melanoma
CAKI-1 renal = tested on: CAKI-1 renal
NCI-H460 lung = tested on: NCI-H460 lung
RXF 393 renal = tested on: RXF 393 renal
SNB-75 CNS = tested on: SNB-75 CNS
CCRF-CEM leukemia = tested on: CCRF-CEM leukemia
NCI/ADR-RES ovarian = tested on: NCI/ADR-RES ovarian
SF-268 CNS = tested on: SF-268 CNS
NCI-H23 lung = tested on: NCI-H23 lung
A549 NSCLC = tested on: A549 NSCLC
BT-549 breast = tested on: BT-549 breast
UACC-257 melanoma = tested on: UACC-257 melanoma
NCI-H226 lung = tested on: NCI-H226 lung
SK-OV-3 ovarian = tested on: SK-OV-3 ovarian
OVCAR-5 ovarian = tested on: OVCAR-5 ovarian
K-562 leukemia = tested on: K-562 leukemia
ACHN renal = tested on: ACHN renal
UACC-62 melanoma = tested on: UACC-62 melanoma
M14 melanoma = tested on: M14 melanoma
DU-145 prostate = tested on: DU-145 prostate
RPMI-8226 leukemia = tested on: RPMI-8226 leukemia
MDA-MB-435 = tested on: MDA-MB-435
SF-539 CNS = tested on: SF-539 CNS
PC-3 prostate = tested on: PC-3 prostate
KM12 colon = tested on: KM12 colon
786-0 renal = tested on: 786-0 renal
SW-620 colon = tested on: SW-620 colon
OVCAR-4 ovarian = tested on: OVCAR-4 ovarian
OVCAR-8 ovarian = tested on: OVCAR-8 ovarian
OVCAR-3 ovarian = tested on: OVCAR-3 ovarian
LOX IMVI melanoma = tested on: LOX IMVI melanoma
HCT-15 colon = tested on: HCT-15 colon
MOLT-4 leukemia = tested on: MOLT-4 leukemia
UO-31 renal = tested on: UO-31 renal
HOP-62 NSCLC = tested on: HOP-62 NSCLC
SNB-19 CNS = tested on: SNB-19 CNS
SN12C renal = tested on: SN12C renal
MDA-MB-231 breast = tested on: MDA-MB-231 breast

C=CCC(N[C@H](CO)c1ccccc1)c1cn(C(=O)OCC)c2ccccc12 (some centres not stated)
GI50 (HCT-116 colon): 14.7 µM | TGI (HCT-116 colon): 28 µM | GI50 (T-47D breast): 25.1 µM | TGI (T-47D breast): > 100 µM | GI50 (COLO 205 colon): 19.5 µM | TGI (COLO 205 colon): 65.6 µM | GI50 (SF-295 CNS): 15.4 µM | TGI (SF-295 CNS): 29.3 µM | GI50 (SK-MEL-5 melanoma): 17.5 µM | TGI (SK-MEL-5 melanoma): 32.8 µM | GI50 (EKVX NSCLC): 17.5 µM | TGI (EKVX NSCLC): 37.3 µM | GI50 (HT29 colon): 31 µM | TGI (HT29 colon): > 100 µM | GI50 (HS 578T breast): 19.4 µM | TGI (HS 578T breast): 46 µM | GI50 (MCF7 breast): 35.2 µM | TGI (MCF7 breast): > 100 µM | GI50 (U251 CNS): 17.8 µM | TGI (U251 CNS): 33.2 µM | GI50 (HOP-92 NSCLC): 18 µM | TGI (HOP-92 NSCLC): 35.7 µM | GI50 (SK-MEL-28 melanoma): 28.4 µM | TGI (SK-MEL-28 melanoma): 66.1 µM | GI50 (HCC-2998 colon): 15.8 µM | TGI (HCC-2998 colon): 29.6 µM | GI50 (IGROV1 ovarian): 8.46 µM | TGI (IGROV1 ovarian): 26.3 µM | GI50 (NCI-H522 lung): 15.2 µM | TGI (NCI-H522 lung): 32.1 µM | GI50 (TK-10 renal): 16.5 µM | TGI (TK-10 renal): 34 µM | GI50 (SK-MEL-2 melanoma): 18.4 µM | TGI (SK-MEL-2 melanoma): 42 µM | GI50 (CAKI-1 renal): 12.4 µM | TGI (CAKI-1 renal): 26.9 µM | GI50 (NCI-H460 lung): 37.3 µM | TGI (NCI-H460 lung): > 100 µM | GI50 (RXF 393 renal): 0.98 µM | TGI (RXF 393 renal): 21.3 µM | GI50 (SNB-75 CNS): 23 µM | TGI (SNB-75 CNS): 74.3 µM | GI50 (CCRF-CEM leukemia): 44 µM | TGI (CCRF-CEM leukemia): > 100 µM | GI50 (NCI/ADR-RES ovarian): 15.9 µM | TGI (NCI/ADR-RES ovarian): 32.4 µM | GI50 (SF-268 CNS): 32.1 µM | TGI (SF-268 CNS): 89.9 µM | GI50 (NCI-H23 lung): 15.8 µM | TGI (NCI-H23 lung): 32 µM | GI50 (A549 NSCLC): 13.1 µM | TGI (A549 NSCLC): 27.6 µM | GI50 (BT-549 breast): 19.8 µM | TGI (BT-549 breast): 39 µM | TGI (UACC-257 melanoma): 18 µM | GI50 (NCI-H226 lung): 15.2 µM | TGI (NCI-H226 lung): 31 µM | GI50 (SK-OV-3 ovarian): 31.3 µM | TGI (SK-OV-3 ovarian): > 100 µM | GI50 (OVCAR-5 ovarian): 16.3 µM | TGI (OVCAR-5 ovarian): 33.8 µM | GI50 (K-562 leukemia): 8.51 µM | TGI (K-562 leukemia): 33.2 µM | GI50 (ACHN renal): 16.1 µM | TGI (ACHN renal): 30.2 µM | GI50 (UACC-62 melanoma): 16.4 µM | TGI (UACC-62 melanoma): 30.6 µM | GI50 (M14 melanoma): 14.3 µM | TGI (M14 melanoma): 28.2 µM | GI50 (DU-145 prostate): 19.3 µM | TGI (DU-145 prostate): 37.3 µM | GI50 (RPMI-8226 leukemia): 70.2 µM | TGI (RPMI-8226 leukemia): > 100 µM | GI50 (MDA-MB-435): 18 µM | TGI (MDA-MB-435): 33.4 µM | GI50 (SF-539 CNS): 18.6 µM | TGI (SF-539 CNS): 35.1 µM | GI50 (PC-3 prostate): 23.2 µM | TGI (PC-3 prostate): 69.3 µM | GI50 (KM12 colon): 16.7 µM | TGI (KM12 colon): 34.8 µM | GI50 (786-0 renal): 15.2 µM | TGI (786-0 renal): 28.9 µM | GI50 (SW-620 colon): 25.6 µM | TGI (SW-620 colon): 52.2 µM | GI50 (OVCAR-4 ovarian): 37.3 µM | TGI (OVCAR-4 ovarian): > 100 µM | GI50 (OVCAR-8 ovarian): 13.4 µM | TGI (OVCAR-8 ovarian): 27.7 µM | GI50 (OVCAR-3 ovarian): 11.6 µM | TGI (OVCAR-3 ovarian): 25 µM | GI50 (LOX IMVI melanoma): 15.9 µM | TGI (LOX IMVI melanoma): 30.1 µM | GI50 (HCT-15 colon): 18.6 µM | TGI (HCT-15 colon): 39.4 µM | GI50 (MOLT-4 leukemia): 17.8 µM | TGI (MOLT-4 leukemia): 41.6 µM | GI50 (UO-31 renal): 16.1 µM | TGI (UO-31 renal): 32.5 µM | GI50 (HOP-62 NSCLC): 14.5 µM | TGI (HOP-62 NSCLC): 27.9 µM | GI50 (SNB-19 CNS): 22.3 µM | TGI (SNB-19 CNS): 66.9 µM | GI50 (SN12C renal): 18.3 µM | TGI (SN12C renal): 32.7 µM | GI50 (MDA-MB-231 breast): 15.7 µM | TGI (MDA-MB-231 breast): 31.3 µM
